Test system: 885512-296-R-J2-PDC complex spheroid viability
Assay: Anticancer human tumor 885512-296-R-J2-PDC patient-derived breast carcinoma cell line growth inhibition [GQUAD]
Settings: for IC50: curve of first compound; for viability, T/C: stronger effect = lower value
Method in brief: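 Viability of tumor cells grown as complex spheroids with endothelial and stromal cells, exposed to drug combinations. Top concentration at or near clinical Cmax (else 10 microM), diluted in half-log increments.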

[1] = second compound 0.0316 µM, first compound 0.0316 µM
[2] = second compound 0.0316 µM, first compound 0.1 µM
[3] = second compound 0.0316 µM, first compound 0.316 µM
[4] = second compound 0.0316 µM, first compound 1 µM
[5] = second compound 0.0316 µM, first compound 3.16 µM
[6] = second compound 0.0316 µM, first compound 10 µM
[7] = second compound 0.1 µM, first compound 0.0316 µM
[8] = second compound 0.1 µM, first compound 0.1 µM
[9] = second compound 0.1 µM, first compound 0.316 µM
[10] = second compound 0.1 µM, first compound 1 µM
[11] = second compound 0.1 µM, first compound 3.16 µM
[12] = second compound 0.1 µM, first compound 10 µM
[13] = second compound 0.316 µM, first compound 0.0316 µM
[14] = second compound 0.316 µM, first compound 0.1 µM
[15] = second compound 0.316 µM, first compound 0.316 µM
[16] = second compound 0.316 µM, first compound 1 µM
[17] = second compound 0.316 µM, first compound 3.16 µM
[18] = second compound 0.316 µM, first compound 10 µM
[19] = second compound 1 µM, first compound 0.0316 µM
[20] = second compound 1 µM, first compound 0.1 µM
[21] = second compound 1 µM, first compound 0.316 µM
[22] = second compound 1 µM, first compound 1 µM
[23] = second compound 1 µM, first compound 3.16 µM
[24] = second compound 1 µM, first compound 10 µM
[25] = second compound 3.16 µM, first compound 0.0316 µM
[26] = second compound 3.16 µM, first compound 0.1 µM
[27] = second compound 3.16 µM, first compound 0.316 µM
[28] = second compound 3.16 µM, first compound 1 µM
[29] = second compound 3.16 µM, first compound 3.16 µM
[30] = second compound 3.16 µM, first compound 10 µM
[31] = second compound 10 µM, first compound 0.0316 µM
[32] = second compound 10 µM, first compound 0.1 µM
[33] = second compound 10 µM, first compound 0.316 µM
[34] = second compound 10 µM, first compound 1 µM
[35] = second compound 10 µM, first compound 3.16 µM
[36] = second compound 10 µM, first compound 10 µM
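Further: spheroids exposed to the compounds for one week.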
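Wherever viability, T/C is given: percent of tumor spheroid viability relative to DMSO vehicle control wells.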

## COc1ncnc(C2CC2)c1-c1ncc2cnn(Cc3ccc(-c4nc(C(F)(F)F)cn4C(C)C)cc3)c2n1 + Cc1[nH]c2ccc(F)cc2c1-c1nc2c3cccnc3c3ncccc3c2[nH]1
Second compound 0.0316 µM
  IC50: 948 nM
Second compound 0.1 µM
  IC50: 660 nM
Second compound 0.316 µM
  IC50: 564 nM
Second compound 1 µM
  IC50: 93.9 nM
Second compound 3.16 µM
  IC50: < 31.6 nM
Second compound 10 µM
  IC50: < 31.6 nM
[1]
  viability, T/C: 89.9%
[2]
  viability, T/C: 82.6%
[3]
  viability, T/C: 64.5%
[4]
  viability, T/C: 52.1%
[5]
  viability, T/C: 25.1%
[6]
  viability, T/C: 2.97%
[7]
  viability, T/C: 104%
[8]
  viability, T/C: 83.5%
[9]
  viability, T/C: 66.7%
[10]
  viability, T/C: 38.7%
[11]
  viability, T/C: 23.7%
[12]
  viability, T/C: 2.95%
[13]
  viability, T/C: 88.5%
[14]
  viability, T/C: 78.3%
[15]
  viability, T/C: 60.5%
[16]
  viability, T/C: 34.5%
[17]
  viability, T/C: 27.8%
[18]
  viability, T/C: 2.76%
[19]
  viability, T/C: 59.2%
[20]
  viability, T/C: 49.4%
[21]
  viability, T/C: 37.4%
[22]
  viability, T/C: 28.5%
[23]
  viability, T/C: 25.1%
[24]
  viability, T/C: 2.31%
[25]
  viability, T/C: 5.23%
[26]
  viability, T/C: 4.49%
[27]
  viability, T/C: 2.87%
[28]
  viability, T/C: 4.14%
[29]
  viability, T/C: 3.49%
[30]
  viability, T/C: 0.54%
[31]
  viability, T/C: 1.44%
[32]
  viability, T/C: 1.29%
[33]
  viability, T/C: 1.4%
[34]
  viability, T/C: 2.23%
[35]
  viability, T/C: 2.81%
[36]
  viability, T/C: 0.35%

## Nc1ccn(C2OC(CO)C(O)C2(F)F)c(=O)n1 (stereo unspecified) + Cc1[nH]c2ccc(F)cc2c1-c1nc2c3cccnc3c3ncccc3c2[nH]1
Second compound 0.0316 µM
  IC50: < 31.6 nM
Second compound 0.1 µM
  IC50: < 31.6 nM
Second compound 0.316 µM
  IC50: < 31.6 nM
Second compound 1 µM
  IC50: < 31.6 nM
Second compound 3.16 µM
  IC50: < 31.6 nM
Second compound 10 µM
  IC50: < 31.6 nM
[1]
  viability, T/C: 14.6%
[2]
  viability, T/C: 3.03%
[3]
  viability, T/C: 2.43%
[4]
  viability, T/C: 3.01%
[5]
  viability, T/C: 3.2%
[6]
  viability, T/C: 2.56%
[7]
  viability, T/C: 16.3%
[8]
  viability, T/C: 3.26%
[9]
  viability, T/C: 3.63%
[10]
  viability, T/C: 3.04%
[11]
  viability, T/C: 3%
[12]
  viability, T/C: 3.74%
[13]
  viability, T/C: 14.6%
[14]
  viability, T/C: 3.44%
[15]
  viability, T/C: 3.02%
[16]
  viability, T/C: 2.57%
[17]
  viability, T/C: 2.96%
[18]
  viability, T/C: 3.36%
[19]
  viability, T/C: 8.48%
[20]
  viability, T/C: 2.45%
[21]
  viability, T/C: 2.51%
[22]
  viability, T/C: 2.76%
[23]
  viability, T/C: 2.94%
[24]
  viability, T/C: 2.65%
[25]
  viability, T/C: 2.21%
[26]
  viability, T/C: 1.43%
[27]
  viability, T/C: 1.74%
[28]
  viability, T/C: 1.98%
[29]
  viability, T/C: 1.96%
[30]
  viability, T/C: 1.86%
[31]
  viability, T/C: 1.33%
[32]
  viability, T/C: 1.29%
[33]
  viability, T/C: 1.17%
[34]
  viability, T/C: 1.35%
[35]
  viability, T/C: 1.44%
[36]
  viability, T/C: 1.08%

## Cc1[nH]c2ccccc2c1CCNCc1ccc(/C=C/C(=O)NO)cc1 + Cc1[nH]c2ccc(F)cc2c1-c1nc2c3cccnc3c3ncccc3c2[nH]1
Second compound 0.0316 µM
  IC50: > 316 nM
Second compound 0.1 µM
  IC50: > 316 nM
Second compound 0.316 µM
  IC50: > 316 nM
Second compound 1 µM
  IC50: > 316 nM
Second compound 3.16 µM
  IC50: < 0.999 nM
Second compound 10 µM
  IC50: < 0.999 nM
Second compound 0.0316 µM, first compound 0.000999 µM
  viability, T/C: 99.3%
Second compound 0.0316 µM, first compound 0.00316 µM
  viability, T/C: 114%
Second compound 0.0316 µM, first compound 0.00999 µM
  viability, T/C: 97.1%
[1]
  viability, T/C: 94.9%
Second compound 0.0316 µM, first compound 0.0999 µM
  viability, T/C: 100%
[3]
  viability, T/C: 78.2%
Second compound 0.1 µM, first compound 0.000999 µM
  viability, T/C: 99.7%
Second compound 0.1 µM, first compound 0.00316 µM
  viability, T/C: 97.1%
Second compound 0.1 µM, first compound 0.00999 µM
  viability, T/C: 94.7%
[7]
  viability, T/C: 92.1%
Second compound 0.1 µM, first compound 0.0999 µM
  viability, T/C: 103%
[9]
  viability, T/C: 82.4%
Second compound 0.316 µM, first compound 0.000999 µM
  viability, T/C: 92.5%
Second compound 0.316 µM, first compound 0.00316 µM
  viability, T/C: 88.4%
Second compound 0.316 µM, first compound 0.00999 µM
  viability, T/C: 90.2%
[13]
  viability, T/C: 87.3%
Second compound 0.316 µM, first compound 0.0999 µM
  viability, T/C: 85.7%
[15]
  viability, T/C: 69.5%
Second compound 1 µM, first compound 0.000999 µM
  viability, T/C: 75.9%
Second compound 1 µM, first compound 0.00316 µM
  viability, T/C: 53.9%
Second compound 1 µM, first compound 0.00999 µM
  viability, T/C: 62.3%
[19]
  viability, T/C: 65.9%
Second compound 1 µM, first compound 0.0999 µM
  viability, T/C: 53.7%
[21]
  viability, T/C: 56.4%
Second compound 3.16 µM, first compound 0.000999 µM
  viability, T/C: 5.78%
Second compound 3.16 µM, first compound 0.00316 µM
  viability, T/C: 9.7%
Second compound 3.16 µM, first compound 0.00999 µM
  viability, T/C: 7.26%
[25]
  viability, T/C: 6.61%
Second compound 3.16 µM, first compound 0.0999 µM
  viability, T/C: 5.06%
[27]
  viability, T/C: 4.88%
Second compound 10 µM, first compound 0.000999 µM
  viability, T/C: 1.15%
Second compound 10 µM, first compound 0.00316 µM
  viability, T/C: 1.37%
Second compound 10 µM, first compound 0.00999 µM
  viability, T/C: 1.33%
[31]
  viability, T/C: 2.33%
Second compound 10 µM, first compound 0.0999 µM
  viability, T/C: 1.05%
[33]
  viability, T/C: 1.69%

From PubChem BioAssay AID2060490 (Molecular Pharmacology Branch, DTP, NCI, 2025)
